The results in this text go back to ChEMBL document CHEMBL1122370 (J Med Chem, 1983).

Assay [1] relates to L1210. In words: In vivo anti tumor activity against L1210 leukemia in 5 mice measured as Increased life span at 20 mg/kg. It is filed as functional. To be noted: Mus musculus.
The test system of assay [2] is Mus musculus. Put plainly: Average weight change in mouse after treating with 20 mg/kg dose for 7 days. It is filed as functional. Details: unit not given beside the values.
Assay [3] concerns Mus musculus. Put plainly: Average weight change in mouse after treating with 40 mg/kg dose for 7 days. It is filed as functional.
In assay [4] the test system is L1210. Put plainly: In vivo antitumor activity against L1210 leukemia in 5 mice measured as median survival range at 40 mg/kg; Value ranges from (16-19). In kind it is functional, Mus musculus.
Assay [5] relates to Mus musculus. In words: Average weight of the mouse after treating with 40 mg/kg dose for 1 day. In kind it is functional. Details: unit not given here.
For assay [6], the system named is L1210. Put plainly: In vivo anti tumor activity against L1210 leukemia in 19 mice measured as T/C values; T/C = 19/9. It is filed as functional, Mus musculus.
Assay [7] has as its system L1210. In words: In vivo antitumor activity against L1210 leukemia in 5 mice measured as median survival range at 20 mg/kg; Value ranges from (11-17). In kind it is functional, Mus musculus.
The subject of assay [8] is Mus musculus. In words: Average weight of the mouse after treating with 20 mg/kg dose for 1 day. In kind it is functional. Details: unit not given here.
For assay [9], the system named is L1210. Put plainly: In vivo anti tumor activity against L1210 leukemia in 5 mice measured as Increased life span at 40 mg/kg. It is filed as functional. To be noted: Mus musculus.
Assay [10] has as its system L1210. Put plainly: In vivo anti tumor activity against L1210 leukemia in 13 mice measured as T/C values at 20 mg/kg; T/C = 13/9. In kind it is functional, Mus musculus.
Assay [11] has as its system Mus musculus. In words: Average weight of the mouse after treating with 15 mg/kg dose for 7 days. It is filed as functional.
Assay [12] concerns L1210. Put plainly: In vivo anti tumor activity against L1210 leukemia in 5 mice measured as Increased life span. In kind it is functional, Mus musculus.
Assay [13] deals with L1210. In words: In vivo anti tumor activity against L1210 leukemia in 10 mice measured as median survival range at 30 mg/kg; Value ranges from(11-17). It is filed as functional, Mus musculus.
In assay [14] the test system is L1210. Put plainly: In vivo anti tumor activity against L1210 leukemia in 10 mice measured as median survival range at 60 mg/kg; Value ranges from(7-24). It is filed as functional, Mus musculus.
The test system of assay [15] is L1210. Put plainly: In vivo antitumor activity against L1210 leukemia in 16 mice measured as T/C values; T/C = 16/9. It is filed as functional, Mus musculus.
For assay [16], the system named is Mus musculus. Put plainly: Average weight of the mouse after treating with 15 mg/kg dose for 1 day. It is filed as functional.
For assay [17], the system named is L1210. In words: In vivo antitumor activity against L1210 leukemia in 10 mice measured as median survival range at 15 mg/kg; Value ranges from(15-20). It is filed as functional, Mus musculus.
The subject of assay [18] is L1210. Put plainly: In vivo anti tumor activity against L1210 leukemia in 10 mice measured as Increased life span at 30 mg/kg. In kind it is functional. The conditions noted are these: Mus musculus.
Assay [19] has as its system Mus musculus. Put plainly: Average weight of the mouse after treating with 60 mg/kg dose for 7 days. It is filed as functional.
For assay [20], the system named is Mus musculus. Put plainly: Average weight of the mouse after treating with 30 mg/kg dose for 7 days. In kind it is functional.
For assay [21], the system named is Mus musculus. Put plainly: Average weight of the mouse after treating with 60 mg/kg dose for 1 day. It is filed as functional.
Assay [22] relates to L1210. Put plainly: In vivo anti tumor activity against L1210 leukemia in 10 mice measured as Increased life span at 60 mg/kg. It is filed as functional. The conditions noted are these: Mus musculus.
The test system of assay [23] is Mus musculus. In words: Average weight of the mouse after treating with 30 mg/kg dose for 1 day. In kind it is functional.
Assay [24] concerns Mus musculus. In words: Average weight of the mouse after treating with 20 mg/kg dose for 7 days. Details: unit not given beside the values. In kind it is functional.
The subject of assay [25] is L1210. In words: In vivo antitumor activity against L1210 leukemia in 5 mice measured as median survival range at 40 mg/kg; Value ranges from(22-27). In kind it is functional, Mus musculus.
The test system of assay [26] is L1210. Put plainly: In vivo antitumor activity against L1210 leukemia in 5 mice measured as median survival range at 20 mg/kg; Value ranges from(13-22). In kind it is functional, Mus musculus.
Assay [27] deals with L1210. Put plainly: In vivo antitumor activity against L1210 leukemia in 18 mice measured as T/C values; T/C = 18/9. It is filed as functional, Mus musculus.
The test system of assay [28] is Mus musculus. In words: Average weight of the mouse after treating with 10 mg/kg dose for 7 days. It is filed as functional.
The subject of assay [29] is Mus musculus. In words: Average weight of the mouse after treating with 40 mg/kg dose for 7 days. In kind it is functional. Details: unit not given beside the values.
For assay [30], the system named is L1210. Put plainly: In vivo anti tumor activity against L1210 leukemia in 5 mice measured as Increased life span at 10 mg/kg. It is filed as functional. The conditions noted are these: Mus musculus.
Assay [31] relates to L1210. In words: In vivo antitumor activity against L1210 leukemia in 5 mice measured as Increased life span at 20 mg/kg. In kind it is functional. To be noted: Mus musculus.
Assay [32] concerns Mus musculus. In words: Average weight of the mouse after treating with 10 mg/kg dose for 1 day. In kind it is functional. Details: unit not given here.
The test system of assay [33] is L1210. Put plainly: In vivo antitumor activity against L1210 leukemia in 17 mice measured as T/C values; T/C = 17/9. It is filed as functional, Mus musculus.
Assay [34] concerns L1210. Put plainly: In vivo antitumor activity against L1210 leukemia in 5 mice measured as Increased life span at 40 mg/kg. In kind it is functional. The conditions noted are these: Mus musculus.
For assay [35], the system named is L1210. Put plainly: In vivo antitumor activity against L1210 leukemia in 24 mice measured as T/C value; T/C = 24/9. In kind it is functional, Mus musculus.
The subject of assay [36] is L1210. Put plainly: In vivo antitumor activity against L1210 leukemia in 5 mice measured as median survival range at 10 mg/kg; Value ranges from(13-20). It is filed as functional, Mus musculus.

Regarding `CCCOC(=O)CCC(NC(=O)c1ccc(N(C)Cc2cnc3nc(N)nc(N)c3n2)cc1)C(=O)OCCC` (stereo not drawn), in [1], the ILS – broadly, the gain in survival time of treated over control animals, in per cent – at 20 mg/kg stood at 44%. Also, the Weight change is 2.1 in assay [2] and 0.3 in assay [3]. Also, the Range in assay [4] worked out at 16; in assay [7], 17. Also, the Average weight in assay [5] is reported as 21.1; in assay [8] it was 21.4. The T/C in assay [6] is listed as 19; in assay [10] it was 13. Moreover, the increase in life span (ILS) at 40 mg/kg in assay [9] was determined as 100%.
Turning to `CCCCOC(=O)CCC(NC(=O)c1ccc(N(C)Cc2cnc3nc(N)nc(N)c3n2)cc1)C(=O)OCCCC` (stereo not drawn), the Weight change in assay [11] is 4.2; in assay [19], 5.1; in assay [20], 4.1. Moreover, the ILS in assay [12] is recorded as 77%. For the same compound, the Range in assay [13] turned out to be 17; in assay [14], 24; in assay [17], 20. In assay [15], the T/C is given as 9. Moreover, the figures for the Average weight in [16], in [21] and in assay [23] were 25.3, 24.9 and 26.1, respectively. In assay [18], this compound registered an increase in life span (ILS) at 30 mg/kg of 66%. In addition, in assay [22], the ILS at 60 mg/kg amounted to 88%.
For the compound `CN(Cc1cnc2nc(N)nc(N)c2n1)c1ccc(C(=O)NC(CCC(=O)OCc2cc3c(cc2Cl)OCO3)C(=O)OCc2cc3c(cc2Cl)OCO3)cc1` (stereo not drawn), the Weight change amounted to 1 in assay [24], 2.1 in [28] and 0.2 in assay [29]. The Range in [25] is listed as 27; in [26] it was 22; in assay [36], 20. Further, the T/C came out at 9 in assay [27], 11 in assay [33] and 9 in [35]. In addition, the Average weight in [5] was found to be 21.4; in assay [32], 22.5; in assay [8], 22.2. For the same compound, the ILS at 10 mg/kg in [30] was 88%. The increase in lifespan (ILS) at 20 mg/kg in assay [31] turned out to be 100%. Moreover, the ILS at 40 mg/kg in assay [34] turned out to be 167%.
